According to patent US20240050428A1 (Cullgen (Shanghai), Inc., priority 2020, published 2024):
Where two headings read alike, the source gives them in different places.

What was measured:
MV4;11 cells = test: Cell viability assay (CellTiter-Glo) in MV4;11 cells, alone or with gilteritinib; assay type: cell-based; conditions: Homo sapiens, MV4-11, 72 h, read-out: MV4
MOLM-13 cells = test: Cell viability assay (CellTiter-Glo) in MOLM-13 cells, alone or with gilteritinib; assay type: cell-based; conditions: Homo sapiens, MOLM-13, 72 h
[1] = MV4;11 cells, with 10 nM gilteritinib, 3 days, CellTiter-Glo, 11 IC50 gilteritinib
[2] = MV4;11 cells, without gilteritinib, 3 days, CellTiter-Glo, 11 IC50
[3] = MOLM-13 cells, with 20 nM gilteritinib, 3 days, CellTiter-Glo, read-out: MOLM-13 IC50 gilteritinib
[4] = MOLM-13 cells, without gilteritinib, 3 days, CellTiter-Glo, read-out: MOLM-13 IC50
[5] = MV4;11 cells, compound alone (without gilteritinib), three days, CellTiter-Glo, 11 IC50
[6] = MV4;11 cells, with gilteritinib 10 nM, three days, CellTiter-Glo, 11 IC50 gilteritinib
[7] = MOLM-13 cells, compound alone (without gilteritinib), three days, CellTiter-Glo, read-out: MOLM-13 IC50
[8] = MOLM-13 cells, with gilteritinib 20 nM, three days, CellTiter-Glo, read-out: MOLM-13 IC50 gilteritinib
[9] = MV4;11 cells, compound with gilteritinib 10 nM, three days, CellTiter-Glo, 11 IC50 gilteritinib
[10] = MOLM-13 cells, compound with gilteritinib 20 nM, three days, CellTiter-Glo, read-out: MOLM-13 IC50 gilteritinib

IC50 (MV4;11 cells; [5]) | IC50 (MV4;11 cells; [6]) | IC50 (MOLM-13 cells; [7]) | IC50 (MOLM-13 cells; [8]) | IC50 (MV4;11 cells; [9]) | IC50 (MOLM-13 cells; [10]) | Compound | also measured
 |  |  |  |  |  | O=C(CCCC(=O)N1CCC(n2cc(-c3cnc4cccc(Br)c4n3)cn2)CC1)NCc1ccc2c(c1)CN(C1CCC(=O)NC1=O)C2=O (centres unmarked) [GS-021, 5-(4-(4-(8-Bromoquinoxalin-2-yl)-1H-pyrazol-1-yl)piperidin-1-yl)-N-((2-(2,6-dioxopiperidin-3-yl)-1-oxoisoindolin-5-yl)methyl)-5-oxopentanamide] | IC50 (MV4;11 cells; [1]): 44 nM; IC50 (MV4;11 cells; [2]): 3130 nM; IC50 (MOLM-13 cells; [3]): 111 nM; IC50 (MOLM-13 cells; [4]): 82 nM
100 to 1000 nM | 10 to 100 nM | > 1000 nM | < 10 nM |  |  | O=C1CCC(N2C(=O)c3ccc(NCCCCCCn4cc(-c5cnc6cccc(F)c6n5)cn4)cc3C2=O)C(=O)N1 (centres unmarked) [GS-377, 2-(2,6-Dioxopiperidin-3-yl)-5-((6-(4-(8-fluoroquinoxalin-2-yl)-1H-pyrazol-1-yl)hexyl)amino)isoindoline-1,3-dione] | 
> 1000 nM | 100 to 1000 nM | > 1000 nM | < 10 nM |  |  | Cc1nn(C2CC(CCCNc3ccc4c(c3)C(=O)N(C3CCC(=O)NC3=O)C4=O)C2)c(C)c1-c1cnc2ccccc2n1 (centres unmarked) [GS-167, 5-((3-(3-(3,5-Dimethyl-4-(quinoxalin-2-yl)-1H-pyrazol-1-yl)cyclobutyl)propyl)amino)-2-(2,6-dioxopiperidin-3-yl)isoindoline-1,3-dione] | 
> 1000 nM | > 1000 nM | > 1000 nM | > 1000 nM |  |  | O=C1CCC(N2C(=O)c3ccc(NCCCCCCn4cc(-c5cnc6cccc(N7CCNCC7)c6n5)cn4)cc3C2=O)C(=O)N1 (centres unmarked) [GS-384, 2-(2,6-Dioxopiperidin-3-yl)-5-((6-(4-(8-(piperazin-1-yl)quinoxalin-2-yl)-1H-pyrazol-1-yl)hexyl)amino)isoindoline-1,3-dione] | 
< 10 nM | < 10 nM | 10 to 100 nM | < 10 nM |  |  | Cc1ccnc(-c2cn([C@H]3C[C@H](CNc4ccc5c(c4)C(=O)N(C4CCC(=O)NC4=O)C5=O)C3)nc2C2CC2)c1 (stereo partly drawn) [GS-253, 5-(((trans-3-(3-Cyclopropyl-4-(4-methylpyridin-2-yl)-1H-pyrazol-1-yl)cyclobutyl)methyl)amino)-2-(2,6-dioxopiperidin-3-yl)isoindoline-1,3-dione] | 
> 1000 nM |  | > 1000 nM |  | 100 to 1000 nM | 100 to 1000 nM | O=C1CCC(N2C(=O)c3ccc(NCCCC4CC(n5cc(-c6cnc7ccc(CC8CNC8)cc7n6)cn5)C4)cc3C2=O)C(=O)N1 (centres unmarked) [GS-566, 5-((3-(3-(4-(7-(Azetidin-3-ylmethyl)quinoxalin-2-yl)-1H-pyrazol-1-yl)cyclobutyl)propyl)amino)-2-(2,6-dioxopiperidin-3-yl)isoindoline-1,3-dione] | 
> 1000 nM |  | > 1000 nM |  | > 1000 nM | > 1000 nM | CN1CCN(c2cn([C@H]3C[C@H](CNc4ccc5c(c4)C(=O)N(C4CCC(=O)NC4=O)C5=O)C3)nc2C2CC2)CC1 (stereo partly drawn) [GS-459, 5-(((trans-3-(3-cyclopropyl-4-(4-methylpiperazin-1-yl)-1H-pyrazol-1-yl)cyclobutyl)methyl)amino)-2-(2,6-dioxopiperidin-3-yl)isoindoline-1,3-dione] | 
> 1000 nM |  | < 10 nM |  | 100 to 1000 nM | 100 to 1000 nM | O=C1CCC(N2C(=O)c3ccc(NC[C@H]4C[C@H](n5nccc5C5CC5)C4)cc3C2=O)C(=O)N1 (stereo partly drawn) [GS-590, 5-(((trans-3-(5-cyclopropyl-1H-pyrazol-1-yl)cyclobutyl)methyl)amino)-2-(2,6-dioxopiperidin-3-yl)isoindoline-1,3-dione] | 
100 to 1000 nM |  | > 1000 nM |  | 10 to 100 nM | 10 to 100 nM | Cc1ccc(-c2cnn([C@H]3C[C@H](CCCNc4ccc5c(c4)C(=O)N(C4CCC(=O)NC4=O)C5=O)C3)c2)nc1 (stereo partly drawn) [GS-446, 2-(2,6-dioxopiperidin-3-yl)-5-((3-(trans-3-(4-(5-methylpyridin-2-yl)-1H-pyrazol-1-yl)cyclobutyl)propyl)amino)isoindoline-1,3-dione] | 
10 to 100 nM | < 10 nM | 100 to 1000 nM | 10 to 100 nM |  |  | O=C1CCC(N2C(=O)c3ccc(NC[C@H]4C[C@H](n5cc(-c6cc7[nH]ccc7cn6)c(C6CC6)n5)C4)cc3C2=O)C(=O)N1 (stereo partly drawn) [GS-282, 5-(((trans-3-(3-Cyclopropyl-4-(1H-pyrrolo[3,2-c]pyridin-6-yl)-1H-pyrazol-1-yl)cyclobutyl)methyl)amino)-2-(2,6-dioxopiperidin-3-yl)isoindoline-1,3-dione] | 
> 1000 nM |  | > 1000 nM |  | > 1000 nM | > 1000 nM | O=C1CCC(N2C(=O)c3ccc(NC[C@H]4C[C@H](n5nc(C6CC6)c6ncccc65)C4)cc3C2=O)C(=O)N1 (stereo partly drawn) [GS-475, 5-(((trans-3-(3-cyclopropyl-1H-pyrazolo[4,3-b]pyridin-1-yl)cyclobutyl)methyl)amino)-2-(2,6-dioxopiperidin-3-yl)isoindoline-1,3-dione] | 
 |  |  |  |  |  | O=C1CCC(N2C(=O)c3ccc(NCCCCCC(=O)N4CCC(n5cc(-c6ccccc6)cn5)CC4)cc3C2=O)C(=O)N1 (centres unmarked) [GS-050, 2-(2,6-Dioxopiperidin-3-yl)-5-((6-oxo-6-(4-(4-phenyl-1H-pyrazol-1-yl)piperidin-1-yl)hexyl)amino)isoindoline-1,3-dione] | IC50 (MV4;11 cells; 11 IC50): < 10 nM; IC50 (MV4;11 cells; 11 IC50 gilteritinib): < 10 nM; IC50 (MOLM-13 cells; read-out: MOLM-13 IC50): 10 to 100 nM; IC50 (MOLM-13 cells; read-out: MOLM-13 IC50 gilteritinib): < 10 nM
100 to 1000 nM |  | > 1000 nM |  | 10 to 100 nM | 10 to 100 nM | Cc1cccc(-c2cn([C@H]3C[C@H](CNc4ccc5c(c4)C(=O)N(C4CCC(=O)NC4=O)C5=O)C3)nc2C(F)(F)F)n1 (stereo partly drawn) [GS-439, 2-(2,6-dioxopiperidin-3-yl)-5-(((trans-3-(4-(6-methylpyridin-2-yl)-3-(trifluoromethyl)-1H-pyrazol-1-yl)cyclobutyl)methyl)amino)isoindoline-1,3-dione] | 
 |  |  |  |  |  | O=C(COc1ccc2c(c1)CN(C1CCC(=O)NC1=O)C2=O)NCCC(=O)N1CCC(n2cc(-c3cnc4cccc(Br)c4n3)cn2)CC1 (centres unmarked) [GS-022, N-(3-(4-(4-(8-bromoquinoxalin-2-yl)-1H-pyrazol-1-yl)piperidin-1-yl)-3-oxopropyl)-2-((2-(2,6-dioxopiperidin-3-yl)-1-oxoisoindolin-5-yl)oxy)acetamide] | IC50 (MV4;11 cells; [1]): 60 nM; IC50 (MV4;11 cells; [2]): 293 nM; IC50 (MOLM-13 cells; [3]): 106 nM; IC50 (MOLM-13 cells; [4]): 875 nM
10 to 100 nM |  | 10 to 100 nM |  | < 10 nM | < 10 nM | O=C1CCC(N2C(=O)c3ccc(NC[C@H]4C[C@H](n5cc(-c6ccc7c(n6)CCC7)c(C6CC6)n5)C4)cc3C2=O)C(=O)N1 (stereo partly drawn) [GS-616, 5-(((trans-3-(3-Cyclopropyl-4-(6,7-dihydro-5H-cyclopenta[b]pyridin-2-yl)-1H-pyrazol-1-yl)cyclobutyl)methyl)amino)-2-(2,6-dioxopiperidin-3-yl)isoindoline-1,3-dione] | 
100 to 1000 nM | 10 to 100 nM | 10 to 100 nM | < 10 nM |  |  | O=C1CCC(N2C(=O)c3ccc(NCCCCCCc4ncc(-c5cnc6ccccc6n5)s4)cc3C2=O)C(=O)N1 (centres unmarked) [GS-386, 2-(2,6-Dioxopiperidin-3-yl)-5-((6-(5-(quinoxalin-2-yl)thiazol-2-yl)hexyl)amino)isoindoline-1,3-dione] | 
100 to 1000 nM |  | 100 to 1000 nM |  | 10 to 100 nM | 10 to 100 nM | O=C1CCC(N2C(=O)c3ccc(NCC4CC(n5cc(-c6cnc7ccccc7n6)cn5)C4)cc3C2=O)C(=O)N1 (centres unmarked) [GS-538, 2-(2,6-Dioxopiperidin-3-yl)-5-(((3-(4-(quinoxalin-2-yl)-1H-pyrazol-1-yl)cyclobutyl)methyl)amino)isoindoline-1,3-dione] | 
< 10 nM | < 10 nM | < 10 nM | < 10 nM |  |  | O=C(Cc1ccc(N2CCC(n3cc(-c4cnc5ccccc5n4)cn3)CC2)cc1)NCc1ccc2c(c1)CN(C1CCC(=O)NC1=O)C2=O (centres unmarked) [GS-122, N-((2-(2,6-dioxopiperidin-3-yl)-1-oxoisoindolin-5-yl)methyl)-2-(4-(4-(4-(quinoxalin-2-yl)-1H-pyrazol-1-yl)piperidin-1-yl)phenyl)acetamide] | 
> 1000 nM | > 1000 nM | > 1000 nM | > 1000 nM |  |  | O=C1CCC(N2C(=O)c3ccc(NCCCCCCn4cc(-c5cnc6cccc(C7CCNCC7)c6n5)cn4)cc3C2=O)C(=O)N1 (centres unmarked) [GS-393, 2-(2,6-Dioxopiperidin-3-yl)-5-((6-(4-(8-(piperidin-4-yl)quinoxalin-2-yl)-1H-pyrazol-1-yl)hexyl)amino)isoindoline-1,3-dione] | 
10 to 100 nM | < 10 nM | 100 to 1000 nM | < 10 nM |  |  | O=C1CCC(N2C(=O)c3ccc(NCCC[C@H]4C[C@H](n5cc(-c6ncccc6Cl)c(C6CC6)n5)C4)cc3C2=O)C(=O)N1 (stereo partly drawn) [GS-070, 5-((3-(trans-3-(4-(3-chloropyridin-2-yl)-3-cyclopropyl-1H-pyrazol-1-yl)cyclobutyl)propyl)amino)-2-(2,6-dioxopiperidin-3-yl)isoindoline-1,3-dione] | 
